PMC8533206 (Antioxidants, 2021)
Counter-ions that a name gives are not always drawn. Like-named read-outs stand apart in the source and are kept apart here. Blank lines part the entries; values can stand above or below the compound they belong to.

Experiments:
MAO-B = conditions: cited from earlier work; for % MAO-B Inhibition: single dose 10 μM; for Selectivity Index (SI): MAO-B over MAO-A, calculated
MAO-A = conditions: cited from earlier work
PC12 cells [1] = assay: Protective effect against rotenone-induced cytotoxicity in PC12 cells (MTT); conditions: 1 μM rotenone, 24 h, compared to vehicle-treated control
Procedure: (§1) PC12 cells were routinely maintained in RPMI-1640 media containing 100 IU/mL penicillin, and 100 μg/mL streptomycin supplemented by 10% heat-inactivated HS, 5% FBS in a humidified incubator containing 5% CO2 and 95% air at 37 °C [25]. The cell culture media was changed every two days. To perform experiments, cells were plated on poly-D-lysine/laminin-coated 24-well plates at a density of 3 × 10^5 cells/well and incubated for at least 24 h to allow cell adhesion.
(§2) To examine the effects of the test compounds on cell survival, cells were incubated in low serum media (1% HS, 1% FBS, 100 IU/mL penicillin, and 100 μg/mL streptomycin) with test compounds at the concentrations of 10 and 30 μM or an equivalent volume of vehicle control (DMSO at the final concentration of 0.3%) for 24 h. The media containing test compounds was sonicated at room temperature for 30 min to assure adequate dissolution in the media. […]
(§3) After the desired treatment, cell viability was determined by MTT assay as described previously, with slight modification. […] The absorbance of the dissolved solution was measured at 550 nm using a microplate reader (SpectraMax M2e, Molecular Devices, Sunnyvale, CA, USA). The cell viability was presented as the percentage of the absorbance measured in the vehicle-treated control cells. […]

PC12 cells [2] = assay: 6-OHDA-induced ROS generation in PC12 cells (H2-DCFDA); format: cell-based, rat
Procedure: (§4) The involvement of oxidative stress in the observed reduction in cell viability was investigated using the fluorescent dye H2-DCFDA as described previously. Briefly, cells were loaded with 10 μM H2-DCFDA for 30 min at 37 °C. Subsequently, cells were exposed for 4 h to 10 μM of test compounds followed by the addition of 50 μM 6-OHDA or 1 μM rotenone for 20 h, and fluorescence was measured spectrophotometrically at 488/520 nm in a microplate reader (SpectraMax M2e). N-acetylcysteine (NAC, 5 mM) was included as a […] control for oxidative stress.

[3] = Protective effect against 6-OHDA-induced cytotoxicity in PC12 cells (MTT); conditions: rat
Procedure: as §1, §2, §3

PC12 cells [4] = assay: Rotenone-induced ROS generation in PC12 cells (H2-DCFDA); format: cell-based, rat; conditions: 5 mM, positive reference
Procedure: as §4

[5] = target: T1, Human recombinant MAO-B (hMAO-B) (Homo sapiens, UniProt P27338); assay: MAO-B inhibition assay (Amplex Red fluorescence, benzylamine substrate); format: biochemical; conditions: single dose 10 µM
T1 construct: purchased Sigma-Aldrich; host or cells: insect cells
T1 sequence (P27338 1-520): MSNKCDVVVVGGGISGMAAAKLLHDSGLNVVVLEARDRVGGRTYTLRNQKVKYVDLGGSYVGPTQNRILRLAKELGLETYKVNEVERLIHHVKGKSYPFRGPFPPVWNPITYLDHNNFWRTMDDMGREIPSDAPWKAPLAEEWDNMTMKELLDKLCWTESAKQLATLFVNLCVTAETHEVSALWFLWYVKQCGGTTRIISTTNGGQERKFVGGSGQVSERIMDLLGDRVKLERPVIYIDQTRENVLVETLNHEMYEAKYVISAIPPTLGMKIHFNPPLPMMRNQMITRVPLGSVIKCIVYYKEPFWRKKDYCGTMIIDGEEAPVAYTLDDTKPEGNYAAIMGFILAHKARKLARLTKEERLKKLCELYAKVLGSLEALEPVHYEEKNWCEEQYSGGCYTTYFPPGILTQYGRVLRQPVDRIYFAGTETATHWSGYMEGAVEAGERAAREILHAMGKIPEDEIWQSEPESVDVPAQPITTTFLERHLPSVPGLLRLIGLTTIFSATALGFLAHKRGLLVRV
Procedure: The biological evaluation of the tested compounds over both MAO-A and MAO-B was performed following the previously reported method. The MAO activity was measured in relative fluorescence units (RFU) evoked by peroxidase-catalyzed oxidation of Amplex Red® to resorufin, in which H2O2 generated by MAO reaction was used as the electron donor. Human recombinant MAO-A (hMAO-A) and MAO-B (hMAO-B) enzymes expressed in insect cells were obtained from Sigma-Aldrich. The 2 μL of test compound in DMSO (final concentration: 1–10 μM) was treated with 98 μL of hMAO enzyme solution in 50 mM sodium phosphate buffer (pH 7.4, final protein amounts: ~1.25 μg protein/well for MAO-A and ~2.5 μg protein/well for MAO-B) on 96-well black plate and incubated for 15 min at 37 °C. Then, 100 μL of reaction working solution which is a mixed solution of 400 μM Amplex Red® (Cayman, final concentration: 200 μM), 2 U/mL horseradish peroxidase (Sigma-Aldrich, final concentration: 1 U/mL) and 2 mM substrate (p-tyramine for MAO-A, benzylamine for MAO-B, Sigma-Aldrich, final concentration: 1 mM) in 50 mM sodium phosphate buffer (pH 7.4) were added and incubated for 20 min at 37 °C in the dark. The fluorescent intensity was quantified using a microplate reader (SpectraMax®i3, Molecular Device) with an excitation at 545 nm and an emission at 590 nm. The 50% inhibitory concentrations (IC50) of compounds were determined as the mean ± S.E.M. in triplicate from the dose-response inhibition curves using SigmaPlot® 13.0 (Systat Software Inc., San Jose, CA, USA).

[6] = previously reported indazole derivatives

Compound: O=C(Nc1ccc2c(ccn2Cc2ccccn2)c1)c1cnccn1 [X]
% MAO-B Inhibition (MAO-B; previous study): 2.38%

Compound: Cn1cc(C(=O)Nc2ccc3[nH]ncc3c2)ccc1=O [IV]
IC50 (MAO-B; [6]): > 10000 nM | IC50 (MAO-A; [6]): > 10000 nM

Compound: O=C(Nc1ccc2c(ccn2C(=O)c2cccc(F)c2)c1)c1cnccn1 [VIII, N-(1-(3-fluorobenzoyl)-1H-indol-5-yl)pyrazine-2-carboxamide]
Selectivity Index (SI) (MAO-B; previous study): > 120 | IC50 (MAO-B; previous study): 777 nM | % MAO-B Inhibition (MAO-B; previous study): 66.39% | IC50 (MAO-A; previous study): > 100000 nM

Compound: O=C(Nc1ccc2[nH]ncc2c1)c1c(F)cccc1Cl [VI]
IC50 (MAO-B; [6]): 3300 nM | IC50 (MAO-A; [6]): > 10000 nM

Compound: O=C(Nc1ccc2c(ccn2Cc2ccc(F)cc2)c1)c1cnccn1 [IX]
IC50 (MAO-B; previous study): 1660 nM | % MAO-B Inhibition (MAO-B; previous study): 88.49% | IC50 (MAO-A; previous study): > 100000 nM

Compound: O=C(Nc1ccc2[nH]ncc2c1)c1cccc(Cl)c1Cl [V]
IC50 (MAO-B; [6]): 2590 nM | IC50 (MAO-A; [6]): > 10000 nM

Compound: C=C(C)[C@H]1Cc2c(ccc3c2O[C@@H]2COc4cc(OC)c(OC)cc4[C@@H]2C3=O)O1 [rotenone, reference compound]
Cell death of PC12 cells exposed to toxin (PC12 cells [1]): 53.1 ± 2.9%

Compound: Cn1ccc2cc(NC(=O)c3cnccn3)ccc21 [VII]
% MAO-B Inhibition (MAO-B; previous study): 49.68%

Compound: NCCc1cc(O)c(O)cc1O [Compound 6-OHDA, 6-Hydroxydopamine, reference compound]
ROS generation, fold of control cells (PC12 cells [2]; 6-OHDA 50 μM, 20 h): approximately 4 fold | viability at 24 h, 50 μM [3]: 47.5 ± 1.2%

Compound: COc1ccc2c(c1)[nH]c1c(C)nccc12 [harmine]
IC50 (MAO-A; selective MAO-A inhibitor): 6 nM

Compound: CC(=O)N[C@@H](CS)C(=O)O [NAC, N-acetylcysteine, reference compound]
Effect on 6-OHDA-induced ROS generation (PC12 cells [2]; 5 mM, positive reference): dramatic inhibition of ROS | Effect on rotenone-induced ROS generation (PC12 cells [4]): dramatic inhibition of ROS

inhibition at 10 µM [5]: 59.6 ± 0.3% | melting point: 226.6 to 227.6 °C
Compound: O=C(Nc1ccc2c(ccn2C(=O)c2cccc(F)c2)c1)c1coc2ccccc2c1=O [Compound 6e, N-(1-(3-fluorobenzoyl)-1H-indol-5-yl)-4-oxo-4H-chromene-3-carboxamide]

inhibition at 10 µM [5]: 15.5 ± 1.1% | melting point: 199.4 to 200.4 °C
Compound: CCOC(=O)NC(=S)Nc1ccc2c(ccn2C(=O)c2cccc(F)c2)c1 [Compound 5a, 1-Ethoxycarbonyl-3-(1-(3-fluorobenzoyl)-1H-indol-5-yl)thiourea]

inhibition at 10 µM [5]: 15.3 ± 0.8% | melting point: 131.6 to 132.6 °C
Compound: O=C(NCc1ccc2c(c1)OCO2)c1ccc2[nH]ccc2c1 [Compound 8d, N-(benzo[d][1,3]dioxol-5-ylmethyl)-1H-indole-5-carboxamide]
